# Tests used:
# HCoEpiC- = assay: Proliferation of non-tumor cells (CCK-8); assay type: cell-based
# Procedure: (§1) The final concentration of DMSO was less than 0.1%, and 0.1% DMSO as negative control. CPT, as Top1 inhibitor, was diluted to 0.5 μM [36, 37], and FM, as Tdp1 inhibitor was diluted to 25 μM [38]. Exponentially growing cells were seeded in 96-well plates (5 × 10^3 cells/well) for 12 h. Various drugs were added separately and incubated for 24, 48, and 72 h. Cell viability was determined by CCK-8 (Beyotime Biotechnology, Shanghai, China) assay. […]
# (§2) The drug concentration required for inhibiting cell proliferation by 50% (IC50) was determined by interpolation from dose-response curves.
# HFL-1 = assay: Proliferation of non-tumor cells (CCK-8); assay type: cell-based; conditions: Homo sapiens, HFL1
# Procedure: as §1, §2
# L02 = assay: Proliferation of non-tumor cells (CCK-8); assay type: cell-based; conditions: Homo sapiens
# Procedure: as §1, §2
# COLO205 = assay: Cell viability assay (CCK-8); assay type: cell-based, Human
# Procedure: as §1, with “PTE or RE were dissolved in DMSO and diluted with culture medium to 1–100 μM. The” for “The”
# as §2
# CL187 = assay: Cell viability assay (CCK-8); assay type: cell-based, Human
# Procedure: as §1, with “PTE or RE were dissolved in DMSO and diluted with culture medium to 1–100 μM. The” for “The”
# as §2
# LoVo = assay: Cell viability assay (CCK-8); assay type: cell-based, Human
# Procedure: as §1, with “PTE or RE were dissolved in DMSO and diluted with culture medium to 1–100 μM. The” for “The”
# as §2
# HCT-116 = assay: Cell viability assay (CCK-8); assay type: cell-based, Human
# Procedure: as §1, with “PTE or RE were dissolved in DMSO and diluted with culture medium to 1–100 μM. The” for “The”
# as §2
# HCT-8 = assay: Cell viability assay (CCK-8); assay type: cell-based, Human
# Procedure: as §1, with “PTE or RE were dissolved in DMSO and diluted with culture medium to 1–100 μM. The” for “The”
# as §2
# siRNA-Tdp1 CL187 cells = assay: Apoptosis by flow cytometry; assay type: cell-based, Human; conditions: 48 h
# Procedure: (§3) Exponentially growing CL187 cells were seeded in 6-well plates (1.2 × 10^6 cells/well) until a well was filled with cells. The RE or PTE at various concentrations were added separately into plate wells and incubated with cells for 48 h. The incubated cells were collected and treated by Annexin V-FITC/PI Apoptosis Detection Kit. The stained cells were analyzed with a flow cytometer (Becton-Dickinson, Franklin Lakes, NJ, USA), and data analyses were performed with BD Cell Quest^TM pro 6.0..
# Tdp1-over CL187 cells = assay: Apoptosis by flow cytometry; assay type: cell-based, Human; conditions: 48 h
# Procedure: as §3
# siRNA-Top1 CL187 cells = assay: Apoptosis by flow cytometry; assay type: cell-based, Human; conditions: 48 h
# Procedure: as §3
# [1] = system: liver, kidney, lung, and paracancerous colon tissues; assay: HE staining of organs of orthotopic xenograft mice; assay type: in vivo; conditions: orthotopic xenograft nude mice
# Procedure: The mice were anaesthetized with 10% chloral hydrate and fixed on the operating table. After the abdomen of the mice was disinfected with iodine, a small section of the large intestine was squeezed out of the surgical opening. The 0.1 mL (per mouse) CL187 cell suspension (1 × 10^7 /mL) was inoculated into the colon wall of nude mice. After the inoculation, the large intestine was placed into the mouse abdominal cavity. After the wound was sutured, the mice were put into cages until they naturally woke up. After 10 days of inoculation, the animals were randomly divided into 4 groups (6 mice per group). Vector control group was intraperitoneally injected with 5% DMSO and 95% saline containing 30% HP-β-CD (i.p.). The drug dosage was designed according to the results of the previous pharmacokinetic experiment. Experimental Group 1 was intraperitoneal injected (i.p.) with PTE 100 mg/kg, and experiment Group 2 was intragastric administrated (i.g.) with PTE 500 mg/kg, once a day. The bioavailability of PTE was the same in the animals in the above regimens. Positive control group was injected with irinotecan, 20 mg/kg, twice a week. During the experiment, the changes of body weight of nude mice were recorded. After 21 days, the nude mice were sacrificed, the tumor blocks were removed surgically, weighed, and recorded. Tumor and organ tissues were paraffin-embedded and sectioned into […] after being fixed in 4% of paraformaldehyde solution for 24 h. The sections were deparaffinized and rehydrated before detection. For histological observation, tumor sections were stained with hematoxylin and eosin (HE), and then observed by an inverted microscopy (Olympus, Japan).
structure (smiles),measurement,setting,value
"COc1cc(/C=C/c2ccc(O)cc2)cc(OC)c1 [PTE, 3,5-dimethoxy-4′-hydroxy-trans-stilbene]",IC50,HCoEpiC-; 24 h,444 µM
same,IC50,HCoEpiC-; 48 h,250 µM
same,IC50,HCoEpiC-; 72 h,83.4 µM
same,IC50,"HFL-1; HFL-1, 24 h",339 µM
same,IC50,"HFL-1; HFL-1, 48 h",315 µM
same,IC50,"HFL-1; HFL-1, 72 h",130 µM
same,IC50,"L02; L02, 24 h",478 µM
same,IC50,"L02; L02, 48 h",248 µM
same,IC50,"L02; L02, 72 h",148 µM
same,IC50,"COLO205; COLO205, 72 h",< 30 µM
same,IC50,"COLO205; COLO205, 72 h, listed as Pterostilbene",13.6 ± 6.1 µM
same,IC50,"COLO205; Homo sapiens, COLO 205, 24 h, COLO205, 24 h",44.4 ± 16.7 µM
same,IC50,"COLO205; Homo sapiens, COLO 205, 48 h, COLO205, 48 h",24.5 ± 9.13 µM
same,IC50,"CL187; CL187, 72 h",< 30 µM
same,IC50,"CL187; CL187, 72 h, listed as Pterostilbene",14.4 ± 2.93 µM
same,IC50,"CL187; Homo sapiens, 24 h, CL187, 24 h",24.2 ± 11.6 µM
same,IC50,"CL187; Homo sapiens, 48 h, CL187, 48 h",13.8 ± 4.7 µM
same,IC50,LoVo; 72 h,< 30 µM
same,IC50,"LoVo; 72 h, listed as Pterostilbene",12 ± 4.01 µM
same,IC50,"LoVo; Homo sapiens, 24 h",106 ± 28.6 µM
same,IC50,"LoVo; Homo sapiens, 48 h",14.2 ± 4.84 µM
same,IC50,"HCT-116; HCT-116, 72 h, listed as Pterostilbene",21.4 ± 6.79 µM
same,IC50,"HCT-116; Homo sapiens, HCT-116, 24 h",31.2 ± 10.2 µM
same,IC50,"HCT-116; Homo sapiens, HCT-116, 48 h",15.4 ± 4.49 µM
same,IC50,"HCT-116; Homo sapiens, HCT-116, 72 h",< 30 µM
same,IC50,"HCT-8; HCT-8, 72 h, listed as Pterostilbene",25 ± 6.62 µM
same,IC50,"HCT-8; Homo sapiens, HCT-8, 24 h",29.9 ± 10.6 µM
same,IC50,"HCT-8; Homo sapiens, HCT-8, 48 h",25.4 ± 8.25 µM
same,IC50,"HCT-8; Homo sapiens, HCT-8, 72 h",< 30 µM
same,cell apoptotic proportion,"siRNA-Tdp1 CL187 cells; siRNA-Tdp1 CL187, 10 μM",18.16%
same,cell apoptotic proportion,"siRNA-Tdp1 CL187 cells; siRNA-Tdp1 CL187, 20 μM",20.92%
same,cell apoptotic proportion,"siRNA-Tdp1 CL187 cells; siRNA-Tdp1 CL187, 50 μM",24.38%
same,cell apoptotic proportion,"Tdp1-over CL187 cells; Tdp1-over CL187, 10 μM",26.80%
same,cell apoptotic proportion,"Tdp1-over CL187 cells; Tdp1-over CL187, 20 μM",31.81%
same,cell apoptotic proportion,"Tdp1-over CL187 cells; Tdp1-over CL187, 50 μM",32.87%
same,cell apoptotic proportion,"siRNA-Top1 CL187 cells; siRNA-Top1 CL187, 10 μM",25.29%
same,cell apoptotic proportion,"siRNA-Top1 CL187 cells; siRNA-Top1 CL187, 20 μM",29.42%
same,cell apoptotic proportion,"siRNA-Top1 CL187 cells; siRNA-Top1 CL187, 50 μM",33.93%
same,effect on lung inflammation (HE sections),[1],no significant effect on lung inflammation
same,damage to the liver (HE sections),[1]; treatment group vs solvent control,caused no additional damage
